Test results as given in publication PMC7979765, “trans-Translation inhibitors bind to a novel site on the ribosome and clear Neisseria gonorrhoeae in vivo” (Nature Communications, 2021).
In brackets after ≈: the same amount, converted by molar mass. Where two headings read alike, the source gives them in different places.

Tested on: Neisseria gonorrhoeae
Assay: MIC, microbroth dilution, G77L medium
Type: cell-based
Details: Neisseria gonorrhoeae

O=C(Nc1nnc(-c2ccc(F)cc2)o1)N1CCc2ccccc2C1 [MBX-4132]
MIC (read-out: MIC GEOMEAN, strain WHO Z, geomean of replicates): 0.264 µg/mL (≈ 0.78 µM) | MIC (read-out: N. gonorrhoeae H041 MIC, strain H041, Fig. 1B): 0.18 µg/mL (≈ 0.532 µM) | MIC90 (read-out: N. gonorrhoeae MIC90): 0.34 µg/mL (≈ 1 µM) | MIC (strain CDC-0165, CIP, PEN, TET): 0.68 µg/mL (≈ 2.01 µM) | MIC (strain CDC-0165, replicates 1-3): 0.677 µg/mL (≈ 2 µM) | MIC (strain CDC-0166, CIP, PEN, TET): 0.17 µg/mL (≈ 0.502 µM) | MIC (strain CDC-0166, replicates 1-3): 0.169 µg/mL (≈ 0.499 µM) | MIC (strain CDC-0167): 0.13 µg/mL (≈ 0.384 µM) | MIC (strain CDC-0167, replicates 1-3): 0.169 µg/mL (≈ 0.499 µM) | MIC (strain CDC-0169, CIP, PEN, TET): 0.17 µg/mL (≈ 0.502 µM) | MIC (strain CDC-0169, replicates 1-3): 0.169 µg/mL (≈ 0.499 µM) | MIC (strain CDC-0170, CIP, PEN, TET): 0.17 µg/mL (≈ 0.502 µM) | MIC (strain CDC-0170, replicates 1-3): 0.169 µg/mL (≈ 0.499 µM) | MIC (strain CDC-0171, CIP, PEN, TET): 0.17 µg/mL (≈ 0.502 µM) | MIC (strain CDC-0171, replicates 1-3): 0.169 µg/mL (≈ 0.499 µM) | MIC (strain CDC-0172, CIP, PEN, TET): 0.17 µg/mL (≈ 0.502 µM) | MIC (strain CDC-0172, replicates 1-3): 0.169 µg/mL (≈ 0.499 µM) | MIC (strain CDC-0173, CIP, PEN, TET): 0.17 µg/mL (≈ 0.502 µM) | MIC (strain CDC-0173, replicates 1-3): 0.169 µg/mL (≈ 0.499 µM) | MIC (strain CDC-0174, CIP, PEN, TET): 0.17 µg/mL (≈ 0.502 µM) | MIC (strain CDC-0174, replicates 1-3): 0.169 µg/mL (≈ 0.499 µM) | MIC (strain CDC-0175, CIP, PEN, TET): 0.08 µg/mL (≈ 0.236 µM) | MIC (strain CDC-0175, replicates 1-3): 0.085 µg/mL (≈ 0.251 µM) | MIC (strain CDC-0176): 0.34 µg/mL (≈ 1 µM) | MIC (strain CDC-0176, replicates 1-3): 0.338 µg/mL (≈ 0.999 µM) | MIC (strain CDC-0177, CIP, PEN, TET): 0.17 µg/mL (≈ 0.502 µM) | MIC (strain CDC-0177, replicates 1-3): 0.169 µg/mL (≈ 0.499 µM) | MIC (strain CDC-0178, TET): 0.34 µg/mL (≈ 1 µM) | MIC (strain CDC-0178, replicates 1-3): 0.338 µg/mL (≈ 0.999 µM) | MIC (strain CDC-0179, CIP, PEN, TET): 0.08 µg/mL (≈ 0.236 µM) | MIC (strain CDC-0179, replicates 1-3): 0.085 µg/mL (≈ 0.251 µM) | MIC (strain CDC-0180): 0.17 µg/mL (≈ 0.502 µM) | MIC (strain CDC-0180, replicates 1-3): 0.169 µg/mL (≈ 0.499 µM) | MIC (strain CDC-0181, CIP, PEN, TET): 0.17 µg/mL (≈ 0.502 µM) | MIC (strain CDC-0181, replicates 1-3): 0.169 µg/mL (≈ 0.499 µM) | MIC (strain CDC-0182, TET): 0.17 µg/mL (≈ 0.502 µM) | MIC (strain CDC-0182, replicates 1-3): 0.169 µg/mL (≈ 0.499 µM) | MIC (strain CDC-0183, CIP, PEN, TET): 0.34 µg/mL (≈ 1 µM) | MIC (strain CDC-0183, replicates 1-3): 0.338 µg/mL (≈ 0.999 µM) | MIC (strain CDC-0184, CIP, PEN, TET): 0.17 µg/mL (≈ 0.502 µM) | MIC (strain CDC-0184, replicates 1-3): 0.169 µg/mL (≈ 0.499 µM) | MIC (strain CDC-0185, CIP, PEN, TET): 0.27 µg/mL (≈ 0.798 µM) | MIC (strain CDC-0185, replicates 1-3): 0.338 µg/mL (≈ 0.999 µM) | MIC (strain CDC-0186, CIP, PEN, TET): 0.17 µg/mL (≈ 0.502 µM) | MIC (strain CDC-0186, replicates 1-3): 0.169 µg/mL (≈ 0.499 µM) | MIC (strain CDC-0187, CIP, PEN, TET): 0.34 µg/mL (≈ 1 µM) | MIC (strain CDC-0187, replicates 1-3): 0.338 µg/mL (≈ 0.999 µM) | MIC (strain CDC-0188, CIP, PEN): 0.17 µg/mL (≈ 0.502 µM) | MIC (strain CDC-0188, replicates 1-3): 0.169 µg/mL (≈ 0.499 µM) | MIC (strain CDC-0189, CIP, PEN, TET): 0.13 µg/mL (≈ 0.384 µM) | MIC (strain CDC-0189, replicates 1-3): 0.169 µg/mL (≈ 0.499 µM) | MIC (strain CDC-0190, CIP, PEN, TET): 0.17 µg/mL (≈ 0.502 µM) | MIC (strain CDC-0190, replicates 1-3): 0.169 µg/mL (≈ 0.499 µM) | MIC (strain HO41, PEN, TET, CFM, CRO, LVX): 0.17 µg/mL (≈ 0.502 µM) | MIC (strain HO41, replicates 1-3): 0.169 µg/mL (≈ 0.499 µM)
